# Test results from patent US20260000645A1, “USE OF EBSELEN OR ONE OF THE DERIVATIVES THEREOF TO TREAT MITOCHONDRIAL PATHOLOGIES OR DYSFUNCTIONS” (ASSOCIATION FRANCAISE CONTRE LES MYOPATHIES, priority 2022, published 2026).
# How the values were obtained:
# mutant Pa nuo-51^A357V = test: Growth halo of heat sensitive complex I mutant at 33° C.; format: cell-based, Podospora anserina; conditions: 20 nmoles of EBS, 4-5 days
# Description: The strain used in the following examples contains a specific mutation modeling a human mutation in the sub-unit NDUFV1 of complex I leading to a mitochondrial illness. This strain has a growth defect at a non-permissive temperature greater than 31.5° C.
# nuo-51^A357V: The mutation A357V was introduced into the gene nuo-51 of the wild type strain S along with a resistance cassette of nourseothricin (NatR). In order to mimic the human illness NDUFV1A341V, the genes NDI-1 and AOX were deactivated (El-Khoury et al., (2008) Curr Genet. 53:249-58)
# The heat sensitive mutant Pa nuo-51^A357V was homogeneously spread on sterile glass beads on a square Petri dish containing a solid minimal medium (M2). Small sterile filters were then placed on the agar-agar surface and 20 nmoles of EBS were added. DMSO (the vehicle of the compound) was used as a negative control. The plate was then incubated at the non-permissive temperature of 33° C. for 4-5 days then photographed.
# [1] = tested on: myoblasts of a TAZ patient; test: Growth of myoblasts of TAZ patients (SRB, low glucose, 120 hours); format: cell-based, human
# Description: EBS was also tested for the ability thereof to restore cell growth of a line of myoblasts from patients, carriers of mutations in the TAZ gene. The rate of proliferation was measured in a medium with a weak concentration of glucose in 384 well micro-titration plates (1200 cells/wells at T0) using the Sulforhodamine B (SRB) staining protocol at 48, 72, 96 or 120 hours after placing the cells.
# [2] = tested on: fibroblasts of TAZ patients; test: Mitochondrial ATP level in fibroblasts of TAZ patients (CellTiter-Glo); format: cell-based, human; conditions: EBS 12.15 nM for 96 hours
# Description: The levels of mitochondrial ATP in the fibroblasts of TAZ patients were evaluated using a Promega CellTiter-Glo kit. The cells in 96 well plates (5000/well) were treated or not treated with 12.15 nM of EBS for 96 hours then were incubated in the presence of Antimycin A (100 μM), of Rotenone (0.5 μM) or oligomycin A (3 μM).
# [3] = tested on: Cox2 protein in mutant strain taz1; test: Accumulation of Cox2 protein (SDS-PAGE/immunoblot) in taz1; format: cell-based, Saccharomyces cerevisiae; conditions: 1 μM of EBS
# Description: (§1) Total protein extracts from the mutant yeast strain were analyzed by SDS-PAGE ([…] per well) using antibodies against the indicated proteins. The gels shown are representative of at least 3 experiments. Protein levels were quantified using the ImageJ software. The levels of Cox2 were normalized with respect to Ade13p and expressed with respect to the wild type (WT) strain.
# HeLa KO FMC1 = test: Proliferation of HeLa KO FMC1 cell line (SRB); format: cell-based, human; conditions: glucose 1 g/L or galactose; 96 hours; dose-dependent, wide range of concentrations (pM to μM)
# Description: The cell line HeLa KO FMC1, mimicking human illnesses related to a deficiency of ATP synthase (NARP, MILS syndromes), were generated by the CRISPR-Cas9 method. The cell line HeLa KO FMC1 was cultivated in a DMEM medium containing 4.5 g/L of glucose and 110 mg/l of pyruvate and 50 mg/l of uridine.
# The rate of proliferation of this HeLa cell line in which the gene FMC1 was deleted was measured in a medium containing either a low concentration of glucose (1 g/L), or of galactose in micro-plates of 384 wells (4500 cells/cm^2 at T0) using the Sulforhodamine B (SRB) staining protocol 96 hours after seeding and treatment of the cells. The bars represent the average of 8 replicates coming from 3 independent experiments.
# [4] = Weight of KO mice lacking the TAZ gene (mouse model of Barth syndrome); format: in vivo; conditions: 10 mg/kg force-fed twice a day from age 51 days, 1 month; vs solvent
# Description: Mice lacking the TAZ gene (KO model of Barth syndrome) or wild type (WT) gene were force-fed twice a day with 10 mg/kg of Ebselen as of an age of 51 days. The weight was regularly monitored during 1 month of treatment.
# mutant yeast strain sym1 = test: Cellular respiration (OROBOROS oxygraph) in sym1; format: cell-based, Saccharomyces cerevisiae; conditions: EBS 1 μM, compared to non-treated cells
# Description: Respiratory intensity corresponds to the amount of oxygen consumed with respect to time and the number of cells. It reflects the mitochondrial oxidative metabolism of the cells. The consumption of oxygen was measured using the OROBOROS oxygraph system. The cells were cultivated over 7-8 generations at 28° C. for 24 to 48 h in an Ethanol YPA medium supplemented by DMSO or EBS (1 μM). 10^7 cells were introduced into the oxygraph. The consumption of O2 was recorded with or without CCCP (maximum rate of oxygen consumption). The rate of O2 consumption was calculated on the basis of the linear part of the O2 consumption.
# (§2) The experiments described in example 2 were implemented on the mutant yeast strain sym1.
# (§3) The data are the averages ±SEM of at least three independent experiments. The significance of the variations between samples and the controls were estimated using the multi-factorial Anova: Tukey test.
# [5] = tested on: fibroblasts of TAZ patients; test: Respiratory growth/proliferation of fibroblasts of TAZ patients (SRB, low glucose); format: cell-based, human
# Description: EBS was tested for the effect thereof on the respiratory growth of fibroblasts of TAZ patients, as opposed to fibroblasts from eight different patients, carriers of mutations in the TAZ gene (suffering from Barth's syndrome).
# The rate of proliferation was measured in a medium with a weak concentration of glucose (1 g/L; to force cells to use the OXPHOS system rather than glycolyse) in 384 well micro-titration plates (1200 cells/wells at T0) using the Sulforhodamine B (SRB) staining protocol at 24, 48, 72 or 96 hours after placing the cells with or without 12.15 nM of EBS.
# The data are the average of 8 patients or 3 controls in triplicate, in 4 independent experiments.
# The rate of proliferation was then measured under the same experimental conditions but with variable concentrations of ethaselen: The cells were analyzed 96 hours after treatment with increasing doses of ethaselen (from 150 pM to 26.1 μM). The bars represent the average of 4 replicates coming from 2 patients in 3 independent experiments.
# [6] = tested on: Cox2 protein in mutant yeast strain sym1; test: Accumulation of Cox2 protein in sym1; format: cell-based, Saccharomyces cerevisiae; conditions: EBS 1 μM, compared to non-treated cells
# Description: as §1, §2, §3
# [7] = 96 hours, vs negative control DMSO
smiles,measurement,setting,value
"O=c1c2ccccc2[se]n1-c1ccccc1 [ebselen, 2-phenyl-1,2-benzisoselenazol-3(2H)-one]",growth of the mutant (growth halo),mutant Pa nuo-51^A357V,positive effect
same,toxicity concentration,[1],> 78.3 µM
same,"concentration range with beneficial effects on growth, lower limit",[1]; vs DMSO,≥ 450 nM
same,"concentration range with beneficial effects on growth, upper limit",[1]; vs DMSO,≤ 8.7 µM
same,mitochondrial ATP production,[2],improves
same,accumulation of the protein Cox2,[3],increases
same,proliferation of model cells of an ATP synthase deficiency,HeLa KO FMC1,improves
same,weight of KO mice,[4],seemed to take on more weight
same,cell respiration,mutant yeast strain sym1,increased
same,toxicity concentration,"[5]; 96 hours, fibroblasts of TAZ patients",> 234.9 µM
same,"concentration range improving respiratory growth/proliferation, lower limit",[5]; [7],≥ 1.35 nM
same,"concentration range improving respiratory growth/proliferation, upper limit",[5]; [7],≤ 8.7 µM
same,respiratory growth of fibroblasts of TAZ patients,"[5]; EBS 12.15 nM, glucose 1 g/L, 24, 48, 72, 96 hours",improves
same,time after which EBS is effective,"[5]; EBS 12.15 nM, more pronounced at 48, 72 and 96 hours",24 h
same,level of Cox2,[6],increased
